Our source for the T/C values is PubChem BioAssay AID192 (DTP/NCI, 2004).

For this test, the system named is BDF1 mice, B16 melanoma ip, median survival T/C. The test is described as follows: NCI In Vivo Anticancer Drug Screen. Data for tumor model B16 Melanoma (intraperitoneal) in B6D2F1 (BDF1) mice. The settings on record: endpoint: median survival time, higher = longer survival. The essentials: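 In this screen, activity was judged from survival or tumor size in treated versus vehicle-treated tumor-bearing mice, reported as T/C.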

Values joined by “and” are separate entries in the source; they are usually repeats but may differ in a detail not shown here. Equal entries are not always repeated. Inconclusive results and toxic doses are left out.

Take `CC[C@]1(O)C[C@H]2CN(CCc3c([nH]c4ccccc34)[C@@](C(=O)OC)(c3cc4c(cc3OC)N(C=O)[C@H]3[C@@](O)(C(=O)OC)[C@H](OC(C)=O)[C@]5(CC)C=CCN6CC[C@]43[C@@H]65)C2)C1`: the T/C was 154 % of control (dose: 0.06 mg/kg/injection, schedule: Q01DX009 (ip), vehicle: saline); 168 % of control (dose: 0.06 mg/kg/injection, schedule: Q01DX009 (ip), vehicle: water); 156 % of control (dose: 0.06 mg/kg/injection, schedule: Q01DX017 (ip), vehicle: saline); 123 % of control (dose: 0.08 mg/kg/injection, schedule: Q01DX009 (ip), vehicle: water); 123 % of control (dose: 0.12 mg/kg/injection, schedule: Q04DX003 (ip), vehicle: saline); 181 % of control (dose: 0.13 mg/kg/injection, schedule: Q01DX017 (ip), vehicle: saline). The T/C (dose: 0.13 mg/kg/injection, schedule: Q04DX003 (ip), vehicle: saline) was 110 % of control; the T/C (dose: 0.18 mg/kg/injection, schedule: Q01DX005 (ip), vehicle: saline) is 121 % of control; the T/C (dose: 0.2 mg/kg/injection, schedule: Q01DX009 (ip), vehicle: saline) is 152 % of control and 171 % of control; the T/C (dose: 0.23 mg/kg/injection, schedule: Q04DX003 (ip), vehicle: water) is 119 % of control and 121 % of control; the T/C (dose: 0.25 mg/kg/injection, schedule: Q01DX009 (ip), vehicle: water) is 176 % of control and 189 % of control; the T/C (dose: 0.25 mg/kg/injection, schedule: Q01DX017 (ip), vehicle: saline) is 197 % of control. For the same compound, the T/C runs as follows: (dose: 0.3 mg/kg/injection, schedule: Q01DX005 (ip), vehicle: saline) 119 % of control; (dose: 0.36 mg/kg/injection, schedule: Q01DX009 (ip), vehicle: water) 163 % of control; (dose: 0.36 mg/kg/injection, schedule: Q04DX003 (ip), vehicle: saline) 114 % of control; (dose: 0.39 mg/kg/injection, schedule: Q04DX003 (ip), vehicle: saline) 124 % of control; (dose: 0.39 mg/kg/injection, schedule: Q04DX003 (ip), vehicle: water) 119 % of control; (dose: 0.4 mg/kg/injection, schedule: Q01DX009 (ip), vehicle: saline) 178 % of control. The T/C (dose: 0.5 mg/kg/injection, schedule: Q01DX001 (ip), vehicle: saline) is 120 % of control; the T/C (dose: 0.5 mg/kg/injection, schedule: Q01DX009 (ip), vehicle: water) was 155 % of control and 163 % of control and 192 % of control; the T/C (dose: 0.5 mg/kg/injection, schedule: Q04DX003 (ip), vehicle: saline) was 154 % of control; the T/C (dose: 0.5 mg/kg/injection, schedule: Q04DX005 (ip), vehicle: saline) was 163 % of control; the T/C (dose: 0.54 mg/kg/injection, schedule: Q04DX003 (ip), vehicle: saline) is 157 % of control; the T/C (dose: 0.6 mg/kg/injection, schedule: Q04DX003 (ip), vehicle: saline) was 150 % of control and 152 % of control and 176 % of control. Also, the T/C is 118 % of control and 120 % of control (dose: 0.65 mg/kg/injection, schedule: Q01DX001 (ip), vehicle: water); 102 % of control (dose: 0.65 mg/kg/injection, schedule: Q04DX003 (ip), vehicle: saline); 152 % of control (dose: 0.75 mg/kg/injection, schedule: Q04DX003 (ip), vehicle: saline); 116 % of control (dose: 0.8 mg/kg/injection, schedule: Q04DX003 (ip), vehicle: water); 120 % of control (dose: 1.0 mg/kg/injection, schedule: Q01DX001 (ip), vehicle: saline); 181 % of control (dose: 1.0 mg/kg/injection, schedule: Q04DX005 (ip), vehicle: saline). Also, the T/C by setting is: (dose: 1.08 mg/kg/injection, schedule: Q01DX001 (ip), vehicle: water) 124 % of control; (dose: 1.08 mg/kg/injection, schedule: Q04DX003 (ip), vehicle: saline) 156 % of control; (dose: 1.2 mg/kg/injection, schedule: Q04DX003 (ip), vehicle: saline) 160 % of control and 198 % of control; (dose: 1.5 mg/kg/injection, schedule: Q04DX003 (ip), vehicle: saline) 150 % of control and 158 % of control; (dose: 1.67 mg/kg/injection, schedule: Q04DX003 (ip), vehicle: saline) 54 % of control; (dose: 1.8 mg/kg/injection, schedule: Q01DX001 (ip), vehicle: water) 122 % of control and 124 % of control. In addition, the T/C was 159 % of control (dose: 1.8 mg/kg/injection, schedule: Q04DX003 (ip), vehicle: saline); 151 % of control (dose: 1.8 mg/kg/injection, schedule: Q04DX003 (ip), vehicle: water); 173 % of control and 180 % of control (dose: 2.0 mg/kg/injection, schedule: Q04DX003 (ip), vehicle: saline); 67 % of control (dose: 3.0 mg/kg/injection, schedule: Q04DX003 (ip), vehicle: saline); 110 % of control (dose: 15.63 micrograms/kg/injection, schedule: Q01DX009 (ip), vehicle: water); 150 % of control (dose: 62.5 micrograms/kg/injection, schedule: Q01DX009 (ip), vehicle: water). Besides, the T/C by setting is: (dose: 78.0 micrograms/kg/injection, schedule: Q01DX009 (ip), vehicle: saline) 165 % of control; (dose: 78.0 micrograms/kg/injection, schedule: Q01DX009 (ip), vehicle: water) 123 % of control; (dose: 125.0 micrograms/kg/injection, schedule: Q01DX009 (ip), vehicle: water) 159 % of control; (dose: 130.0 micrograms/kg/injection, schedule: Q01DX009 (ip), vehicle: saline) 157 % of control; (dose: 216.0 micrograms/kg/injection, schedule: Q01DX009 (ip), vehicle: saline) 183 % of control; (dose: 216.0 micrograms/kg/injection, schedule: Q04DX003 (ip), vehicle: saline) 123 % of control. For the same compound, the T/C (dose: 250.0 micrograms/kg/injection, schedule: Q01DX009 (ip), vehicle: water) is 175 % of control; the T/C (dose: 360.0 micrograms/kg/injection, schedule: Q01DX009 (ip), vehicle: saline) was 160 % of control; the T/C (dose: 389.0 micrograms/kg/injection, schedule: Q04DX003 (ip), vehicle: saline) is 158 % of control; the T/C (dose: 600.0 micrograms/kg/injection, schedule: Q04DX003 (ip), vehicle: saline) was 155 % of control; the T/C (dose: 648.0 micrograms/kg/injection, schedule: Q04DX003 (ip), vehicle: saline) was 153 % of control; the T/C (dose: 1000.0 micrograms/kg/injection, schedule: Q04DX003 (ip), vehicle: saline) was 152 % of control and 166 % of control. The T/C is 157 % of control (dose: 1080.0 micrograms/kg/injection, schedule: Q04DX003 (ip), vehicle: saline); 179 % of control (dose: 1670.0 micrograms/kg/injection, schedule: Q04DX003 (ip), vehicle: saline); 174 % of control (dose: 1800.0 micrograms/kg/injection, schedule: Q04DX003 (ip), vehicle: saline).

As for `C1CCC2[N-]CC3CCCCC3[N-]CC3CCCCC3[N-]CC3CCCCC3[N-]CC2C1.[Cu]` (stereo not given), the T/C by setting is: (dose: 1.56 mg/kg/injection, schedule: Q01DX009 (ip), vehicle: Klucel (hydroxypropylcellulose) (HPC)) 123 % of control; (dose: 3.12 mg/kg/injection, schedule: Q01DX009 (ip), vehicle: Klucel (hydroxypropylcellulose) (HPC)) 156 % of control.

Regarding `CCOC(=O)c1ccc(N)cc1`, the T/C reads like this: (dose: 37.5 mg/kg/injection, schedule: Q01DX009 (ip), vehicle: saline with Tween-80) 121 % of control; (dose: 37.5 mg/kg/injection, schedule: Q04DX003 (ip), vehicle: saline with Tween-80) 102 % of control; (dose: 75.0 mg/kg/injection, schedule: Q01DX009 (ip), vehicle: saline with Tween-80) 112 % of control; (dose: 75.0 mg/kg/injection, schedule: Q04DX003 (ip), vehicle: saline with Tween-80) 91 % of control; (dose: 150.0 mg/kg/injection, schedule: Q01DX009 (ip), vehicle: saline with Tween-80) 107 % of control; (dose: 150.0 mg/kg/injection, schedule: Q04DX003 (ip), vehicle: saline with Tween-80) 93 % of control.

Turning to `CC1OC(n2ccc(NC(=O)c3ccc(NC(=O)C(C)(N)CO)cc3)nc2=O)CC(O)C1OC1OC(C)C(N(C)C)C(O)C1O` (stereo not given), the T/C (dose: 2.5 mg/kg/injection, schedule: Q01DX009 (ip), vehicle: Klucel (hydroxypropylcellulose) (HPC)) was 117 % of control; the T/C (dose: 5.0 mg/kg/injection, schedule: Q01DX009 (ip), vehicle: Klucel (hydroxypropylcellulose) (HPC)) was 102 % of control; the T/C (dose: 10.0 mg/kg/injection, schedule: Q01DX009 (ip), vehicle: Klucel (hydroxypropylcellulose) (HPC)) is 103 % of control.

With `CC(C)N(C(=O)c1ccccc1Cl)c1ccccc1`, the T/C runs as follows: (dose: 25.0 mg/kg/injection, schedule: Q01DX009 (ip), vehicle: Klucel (hydroxypropylcellulose) (HPC)) 93 % of control; (dose: 100.0 mg/kg/injection, schedule: Q01DX009 (ip), vehicle: Klucel (hydroxypropylcellulose) (HPC)) 106 % of control.
